From US20210077492A1, “METHODS AND COMPOSITIONS OF TREATING PANCREATIC CANCER” (The Trustees of Indiana University, priority 2019, published 2021)

Columns and labels:
[1] = system: pancreatic cancer cell line ASPC1; assay: LINE1 global 5-methyl-cytosine DNA methylation assay in treated or transfected cells; format: cell-based, human; conditions: concentration not given
Description: DNA Methylation of normal pancreas and PDAC tumor samples was analyzed using data available through the MethHC database (http://methhc.mbc.nctu.edu.tw/php/index.php) using the PAAD dataset. Methylation analysis was performed at transcriptional start sites (TSS), promoters, and CpG island. For global DNA methylation changes, cells were transfected with shRNA against human UHRF1 (Dharmacon Horizon, catalog V3SH7590-225743149) for 96 hours or treated with THU (1 μM) DT1 (0.5-15 μM) or 5-aza-cytidine (1 μM). DNA was isolated using the Clonetech NucleoSpin DNA rapid lyse kit (catalog 740110.1) following manufacture's recommended conditions. 100 ng of isolated DNA was used to quantify DNA methylation using the 5mC-Long Interspersed Nucleotide Element 1 (LINE-1) kit from Active Motif (catalog number 55017) following the manufacture's recommendations. A Colorimetric ELISA readout was measured on a BioTek synhergy HI reader at 450 nm.
Referring now to FIG. 17, pancreatic cancer cell line ASPC1 was transfected with shRNA against UHRF1. DNA (100 ng) was isolated from shUFRF1 and scramble transfected cells at 96 hours post transfection and was used for quantification of global 5-methyl-cytosine methylation using LINE1 global DNA methylation kit (ACTIVE MOTIF).
Referring now to FIG. 23, primary PDAC cells were incubated with 2 μM of DT1 and 1 uM of THU for 96 hrs. […]

[2] = system: PDAC cell lines ASPC1, MiaPaCa-2, BXPC3; assay: Cell proliferation of PDAC cell lines by automated IncuCyte incubator; format: cell-based, human
Description: A panel of pancreatic cancer cell lines (PCCs) was ordered from ATCC (https://www.atcc.org). Cells were cultured in RPMI media supplemented with 10% FBS and 1% penicillin streptomycin (100 units/ml of penicillin and […] of streptomycin) in a 37° C. incubator with 5% Carbon dioxide (CO2). All cell lines were confirmed to be mycoplasma-free using a Mycoalert detection kit (Lonza Allendale N.J., catalog #LT07-218) as per manufacturer's protocol. For DT1, DAC, and THU treatments, 1000 cells were plated in a 96 well plate overnight. Cells were treated three times at 24, 48, and 72 hours post-plating using concentrations of 0.2-2 μM of DT1 and DAC and 1-2 μM of THU independently or in combination. DMSO was used as a vehicle control. Cell proliferation was measured in a 37° C., Incucyte incubator (IncuCyte™ live-cell, Essen biosciences, Michigan USA) with 5% CO2 for automated live cell proliferation in real time, and images were taken every 6 hours for up to 160 hours. Cells were also counted on a Beckman coulter automated cell counter. Referring now to FIG. 27, primary PDAC cell line ASPC1 was incubated with 2 μM DT1 to inhibit UHRF1 and/or DNMT1 inhibitor DAC or CDA inhibitor THU (1 μM) or […], 0.2 μM DAC and THU (1 μM). Cell proliferation was quantified by automated IncuCyte incubator for 160 hours. […] Referring now to FIG. 28, primary PDAC cell line MiaPaCa-2 was incubated with 2 μM DT1 to inhibit UHRF1 and/or DNMT1 inhibitor DAC or CDA inhibitor THU (1 μM) or […], 0.2 μM DAC, and THU (1 μM). Cell proliferation was quantified by automated IncuCyte incubator for 160 hours. […] Referring now to FIG. 29, primary PDAC cell line BXPC3 was incubated with 2 μM DT1 to inhibit UHRF1 and/or DNMT1 inhibitor DAC or CDA inhibitor THU (1 μM) or […], 0.2 μM DAC, and THU (1 μM). Cell proliferation was quantified by automated IncuCyte incubator for 160 hours. […] Decitabine (DAC) is a clinically available drug that degrades DNMT1 to decrease DNA methylation while DT1 targets UHRF1.

ASPC1 and BXPC3 cells = assay: Gene expression of pancreas differentiation factors by qPCR; format: cell-based, human; conditions: DT1 at 0.5-2 μM
Description: Gene expression analysis by real time quantitative polymerase chain reaction (qRT-PCR) was performed using standard methods. Gene expression of target genes was performed using either SYBR green methods or Power Green ROX dye master mix (Applied Biosystems, Foster city CA, USA Lot number 1610538). Assays were performed with an Applied Biosytems ViiA7 (Life Technologies).
Referring now to FIG. 23, primary PDAC cells were incubated with 2 μM of DT1 and 1 uM of THU for 96 hrs. RNA was isolated and gene expression pancreas differentiation factors were analyzed in ASPC1 and BXPC3 cells. Referring now to FIG. 24, primary PDAC cell line ASPC1 was treated with 1 μM of THU, 2 μM of DT1, and 1 μM of DAC, or the combination of 0.5 μM of DT1 plus 0.2 μM of DAC, or 1 μM of THU and 0.5 μM of DT1 plus 0.2 μM of DAC. Morphological analysis was performed using a giemsa staining method to determine induction of differentiation (enlargement of cytoplasm and reduction of nuclear compartments). Black bar=200× magnification. Referring now to FIG. 25, primary PDAC cell line ASPC1 was treated with 100 nM of ATRA and 1 μM of DAC, or combination of 100 nM of ATRA plus 200 nM of DAC. […] DNA (100 ng) was isolated at 96 hours post transfection and was used to quantify global 5-methyla-cytosine (5-mC) methylation using LINE1 global DNA methylation kit (ACTIVE MOTIF). […]

[3] = system: primary PDAC cell line ASPC1; assay: Morphological analysis by giemsa staining for induction of differentiation; format: cell-based, human; conditions: DT1 at 0.5-2 μM
Description: Referring now to FIG. 23, primary PDAC cells were incubated with 2 μM of DT1 and 1 uM of THU for 96 hrs. RNA was isolated and gene expression pancreas differentiation factors were analyzed in ASPC1 and BXPC3 cells. Referring now to FIG. 24, primary PDAC cell line ASPC1 was treated with 1 μM of THU, 2 μM of DT1, and 1 μM of DAC, or the combination of 0.5 μM of DT1 plus 0.2 μM of DAC, or 1 μM of THU and 0.5 μM of DT1 plus 0.2 μM of DAC. Morphological analysis was performed using a giemsa staining method to determine induction of differentiation (enlargement of cytoplasm and reduction of nuclear compartments). Black bar=200× magnification. Referring now to FIG. 25, primary PDAC cell line ASPC1 was treated with 100 nM of ATRA and 1 μM of DAC, or combination of 100 nM of ATRA plus 200 nM of DAC. Morphological analysis was performed using a giemsa staining method to determine induction of differentiation (enlargement of cytoplasm and reduction of nuclear compartments). Black bar=200× magnification. Referring now to FIG. 26, pancreatic cancer cell line ASPC1 was treated with DMSO as control, 1 μM of THU, and varying DT1 concentrations. DNA (100 ng) was isolated at 96 hours post transfection and was used to quantify global 5-methyla-cytosine (5-mC) methylation using LINE1 global DNA methylation kit (ACTIVE MOTIF). […]

[4] = system: orthotopic xenografts of PDAC with AsPC-1 cells; assay: Orthotopic PDAC xenograft model, tumor growth kinetics; format: in vivo; conditions: THU 10 mg/kg three times weekly, 35 days
Description: Orthotopic mouse models with human PDAC cells were generated using NOD/SCID mice. In vivo BLI was conducted on a NiteOwl system and acquisition software. Data were analyzed using eLumenate analysis software. For the primary tumor, signal intensity was quantified as the sum of all detected photon counts within a region of interest selected by an automated maximum entropy method and normalized to the area of that region of interest. For the metastatic region, a region of interest was drawn manually in a “crescent” shape which encompassed all of the abdominal region except the primary tumor and maintained a boundary at least 2 mm away from the ROI for the primary. The signal in the metastatic region was again quantified by dividing the sum of all detected photon counts in the region by the area of the region.
Referring to FIG. 30, bioluminescent and primary PDAC cell lines ASPC1 and MiPaCa-2 were used to generate PDAC xenografts for therapeutic validation. At 22 days post injection of tumor cells, tumor growth and metastatic dissemination are detected in this orthotopic models in NOD/SCID mice. Referring to FIG. 31, orthotopic xenografts of PDAC with AsPC-1 cells were treated with vehicle control, Tetrahydrouridine (THU, 10 mg/kg), Decitabine (DAC, 0.2 mg/kg), or combination of THU (10 mg/kg) with DAC (0.1 mg/kg) three times weekly. […]

SMILES	global DNA methylation [1]	concentration range at which DT1 activity was observed [2]	PDAC proliferation ([2]; DT1 at 0.5-2 μM)	expression of pancreas differentiation factors (ASPC1 and BXPC3 cells)	differentiation-based morphological changes [3]	PDAC proliferation ([2]; alone or in combination, methods: 0.2-2 μM of DT1 and DAC, 1-2 μM of THU)	tumor growth kinetics [4]
C/C(=N\O)c1c[nH]c(=O)[nH]c1=O [DT1]	decreased global DNA methylation	micromolar range	decreased PDAC proliferation	upregulated pancreas differentiation factors	induced differentiation-based morphological changes		
O=C1NC(O)CCN1[C@@H]1O[C@H](CO)[C@@H](O)[C@H]1O (stereo partly shown) [THU, tetrahydrouridine, reference compound]						did not inhibit PDAC proliferation alone	did not affect tumor growth kinetics
